Experimental data published in patent publication US9732070B2, “Protein kinase C inhibitors and uses thereof” (Rigel Pharmaceuticals, Inc., priority 2009, dated 2017).

Test system: Human primary T cells
Test: IL-2 ELISA, human primary T cell, anti-CD3+CD28 stimulation
Format: cell-based
Conditions: IL-2 quantified by ELISA, human primary T cells stimulated with αCD3 and αCD28, 24 hours
Method: Human primary T cell isolation and culture: Human primary T cells were prepared as follows. Whole blood was obtained from a healthy volunteer, mixed 1:1 with PBS, layered on to Ficoll Hypaque (Amersham Pharmacia Biotech, Piscataway, N.J., Catalog #17-1440-03) in 2:1 blood/PBS:ficoll ratio and centrifuged for 30 minutes at 4° C. at 1750 rpm. The cells at the serum: ficoll interface were recovered and washed twice with 5 volumes of PBS. These freshly isolated human peripheral blood mononuclear cells were cultured in Yssel's medium containing 40 U/mL IL2 in a flask pre-coated with 1 μg/mL αCD3 and 5 μg/mL αCD28 (Anti-Human CD3, BD Pharmingen Catalog #555336, Anti-Human CD28, Beckman Coulter Catalog #IM1376). The cells were stimulated for 3-4 days, then transferred to a fresh flask and maintained in RPMI (RPMI-1640 with L-Glutamine; Mediatech, Inc., Herndon Va., cat. #10-040-CM) with 10% FBS and 40 U/mL IL-2. The primary T-cells were then washed twice with PBS to remove the IL-2.
Primary T cell stimulation and IL2 ELISA: Human primary T cells (100,000 cells per well) were pre-incubated with or without test compound in Yssel's medium for 1 hour at 37° C. Cells were then stimulated by transferring them to round-bottom 96-well plates pre-coated with 1 μg/ml αCD3 and 5 μg/ml αCD28. For counter assay, cells were instead stimulated by adding 8× stock solutions of PMA and ionomycin in Yssels (for final concentrations of 0.5 ng/ml PMA and 0.1 uM ionomycin, both from Calbiochem). Cells were incubated at 37° C. for 24 hours before 100 μL supernatants were harvested for quantification of IL-2 by ELISA using Human IL-2 Duoset ELISA Kit from R and D Systems, Cat. # DY202E.

SMILES | IC50 | IC50 (T-cell)
CC(C)Oc1c(-n2nnn(C)c2=O)cc(Nc2ncc(F)c(NC3CC(C)(C)NC(C)(C)C3)n2)cc1C(F)(F)F [I-51, N2-(4-isopropoxy-3-(4-methyl-4,5-dihysro-5-oxo-1H-tetrazol-1-yl)-5-trifluoromethylphenyl)-5-fluoro-N4-(2,2,6,6-tetramethylpiperidin-4-yl)pyrimidine-2,4-diamine] | < 500 nM | –
CC(C)Oc1c(-n2nnn(C)c2=O)cc(Nc2ncc(F)c(NC3CC(C)(C)N(C)C(C)(C)C3)n2)cc1C(F)(F)F [I-52, N2-(4-isopropoxy-3-(4-methyl-4,5-dihysro-5-oxo-1H-tetrazol-1-yl)-5-trifluoromethylphenyl)-5-fluoro-N4-(1,2,2,6,6-pentamethylpiperidin-4-yl)pyrimidine-2,4-diamine] | < 500 nM | –
Cn1nnn(-c2cc(Nc3ncc(F)c(NC4CC(C)(C)NC(C)(C)C4)n3)cc(F)c2C2CC2)c1=O [I-59, 1-(2-cyclopropyl-3-fluoro-5-(5-fluoro-4-(2,2,6,6-tetramethylpiperidin-4-ylamino)pyrimidin-2-ylamino)phenyl)-4-methyl-1H-tetrazol-5(4H)-one] | – | < 500 nM
COC(=O)c1cc(Nc2ncc(F)c(NC3CC(C)(C)NC(C)(C)C3)n2)cc(-n2nnn(C)c2=O)c1C [I-60, Methyl 5-((5-fluoro-4-((2,2,6,6-tetramethylpiperidin-4-yl)amino)-2-pyrimidinyl)amino)-2-methyl-3-(4-methyl-4,5-dihysro-5-oxo-1H-tetrazol-1-yl)benzoate] | – | < 500 nM
Cc1c(C(=O)O)cc(Nc2ncc(F)c(NC3CC(C)(C)NC(C)(C)C3)n2)cc1-n1nnn(C)c1=O [I-61] | – | 3000 to 25000 nM
Cn1nnn(-c2cc(Nc3ncc(C#N)c(NC4CC(C)(C)NC(C)(C)C4)n3)cc(F)c2C2CC2)c1=O [I-62, N2-(4-cyclopropyl-5-fluoro-3-(4-methyl-4,5-dihydro-5-oxo-1H-tetrazol-1-yl)phenyl)-N4-(2,2,6,6-tetramethylpiperidin-4-yl)pyrimidine-2,4-diamino-5-carbonitrile] | – | < 500 nM
COC(=O)c1cc(Nc2ncc(F)c(NC3CC(C)(C)N(C)C(C)(C)C3)n2)cc(-n2nnn(C)c2=O)c1C [I-63, Methyl 5-((5-fluoro-4-((1,2,2,6,6-pentamethylpiperidin-4-yl)amino)-2-pyrimidinyl)amino)-2-methyl-3-(4-methyl-4,5-dihysro-5-oxo-1H-tetrazol-1-yl)benzoate] | – | < 500 nM
CNC(=O)c1cc(Nc2ncc(F)c(NC3CC(C)(C)N(C)C(C)(C)C3)n2)cc(-n2nnn(C)c2=O)c1C [I-64, 5-(5-fluoro-4-(1,2,2,6,6-pentamethylpiperidin-4-ylamino)pyrimidin-2-ylamino)-N,2-dimethyl-3-(4-methyl-5-oxo-4,5-dihydro-1H-tetrazol-1-yl)benzamide] | – | < 500 nM
Cc1c(C(=O)O)cc(Nc2ncc(F)c(NC3CC(C)(C)N(C)C(C)(C)C3)n2)cc1-n1nnn(C)c1=O [I-65, 5-((5-fluoro-4-((1,2,2,6,6-pentamethylpiperidin-4-yl)amino)-2-pyrimidinyl)amino)-2-methyl-3-(4-methyl-4,5-dihydro-5-oxo-1H-tetrazol-1-yl)benzoic Acid] | – | 3000 to 25000 nM
CN1C(C)(C)CC(Nc2nc(Nc3ccc(F)c(-n4nnn(C)c4=O)c3F)ncc2F)CC1(C)C [I-66, N2-(2,4-difluoro-3-(4-methyl-4,5-dihydro-5-oxo-1H-tetrazol-1-yl)phenyl)-5-fluoro-N4-(1,2,2,6,6-pentamethylpiperidin-4-yl)pyrimidine-2,4-diamine] | – | 3000 to 25000 nM
Cn1nnn(-c2cc(Nc3ncc(F)c(NC4CC(C)(C)NC(C)(C)C4)n3)c(F)cc2Cl)c1=O [I-68] | – | < 500 nM

Further lines, results first:

IC50 | IC50 (T-cell) | SMILES
– | < 500 nM | Cc1c(-n2nnn(C)c2=O)cc(Nc2ncc(F)c(NC3CC(C)(C)NC(C)(C)C3)n2)cc1C(F)(F)F [I-53, N2-(4-methyl-3-(4-methyl-4,5-dihydro-5-oxo-1H-tetrazol-1-yl)-5-trifluoromethylphenyl)-5-fluoro-N4-(2,2,6,6-tetramethylpiperidin-4-yl)pyrimidine-2,5-diamine]
– | < 500 nM | Cc1c(-n2nnn(C)c2=O)cc(Nc2ncc(F)c(NC3CC(C)(C)N(C)C(C)(C)C3)n2)cc1C(F)(F)F [I-54, N2-(4-methyl-3-(4-methyl-4,5-dihysro-5-oxo-1H-tetrazol-1-yl)-5-trifluoromethylphenyl)-5-fluoro-N4-(1,2,2,6,6-pentamethylpiperidin-4-yl)pyrimidine-2,4-diamine]
– | < 500 nM | Cc1c(Cl)cc(Nc2ncc(F)c(NC3CC(C)(C)NC(C)(C)C3)n2)cc1-n1nnn(C)c1=O [I-55, N2-(5-chloro-4-methyl-3-(4-methyl-4,5-dihysro-5-oxo-1H-tetrazol-1-yl)phenyl)-5-fluoro-N4-(2,2,6,6-tetramethylpiperidin-4-yl)pyrimidine-2,4-diamine]
– | < 500 nM | Cc1c(Cl)cc(Nc2ncc(F)c(NC3CC(C)(C)N(C)C(C)(C)C3)n2)cc1-n1nnn(C)c1=O [I-56, N2-(5-chloro-4-methyl-3-(4-methyl-4,5-dihydro-5-oxo-1H-tetrazol-1-yl)phenyl)-5-fluoro-N4-(1,2,2,6,6-pentamethylpiperidin-4-yl)pyrimidine-2,4-diamine]
– | < 500 nM | Cn1nnn(-c2cc(Nc3ncc(C(N)=O)c(NC4CC(C)(C)NC(C)(C)C4)n3)cc(F)c2C2CC2)c1=O [I-57, N2-(4-cyclopropyl-5-fluoro-3-(4-methyl-4,5-dihydro-5-oxo-1H-tetrazol-1-yl)phenyl)-N4-(2,2,6,6-tetramethylpiperidin-4-yl)pyrimidine-2,4-diamino-5-carboxyamide]
– | < 500 nM | Cn1nnn(-c2cc(Nc3ncc(F)c(NC4CC(C)(C)NC(C)(C)C4)n3)ccc2C#N)c1=O [I-58, N2-(4-cyano-3-(4-methyl-4,5-dihydro-5-oxo-1H-tetrazol-1-yl)phenyl)-5-fluoro-N4-(2,2,6,6-tetramethylpiperidin-4-yl)pyrimidine-2,4-diamine]
